Assay results published in patent publication US8426569B2, “DNA capable of being amplified by PCR with high selectivity and high efficiency” (Riken, priority 2008, dated 2013).

Legend:
DeepVent DNA polymerase [1] = target: T1, DeepVent DNA polymerase (Pyrococcus sp., UniProt Q51334, DEL493-1029); assay type: biochemical
DeepVent DNA polymerase [2] = target: T1, DeepVent DNA polymerase; assay type: biochemical; remark: listed apart in the source
[3] = target: Klenow fragment of DNA polymerase I (KF exo-) (Escherichia coli, UniProt P00582, D355A/E357A)
Chain of Klenow fragment of DNA polymerase I (KF exo-) (P00582 324-928 D355A/E357A limits assumed): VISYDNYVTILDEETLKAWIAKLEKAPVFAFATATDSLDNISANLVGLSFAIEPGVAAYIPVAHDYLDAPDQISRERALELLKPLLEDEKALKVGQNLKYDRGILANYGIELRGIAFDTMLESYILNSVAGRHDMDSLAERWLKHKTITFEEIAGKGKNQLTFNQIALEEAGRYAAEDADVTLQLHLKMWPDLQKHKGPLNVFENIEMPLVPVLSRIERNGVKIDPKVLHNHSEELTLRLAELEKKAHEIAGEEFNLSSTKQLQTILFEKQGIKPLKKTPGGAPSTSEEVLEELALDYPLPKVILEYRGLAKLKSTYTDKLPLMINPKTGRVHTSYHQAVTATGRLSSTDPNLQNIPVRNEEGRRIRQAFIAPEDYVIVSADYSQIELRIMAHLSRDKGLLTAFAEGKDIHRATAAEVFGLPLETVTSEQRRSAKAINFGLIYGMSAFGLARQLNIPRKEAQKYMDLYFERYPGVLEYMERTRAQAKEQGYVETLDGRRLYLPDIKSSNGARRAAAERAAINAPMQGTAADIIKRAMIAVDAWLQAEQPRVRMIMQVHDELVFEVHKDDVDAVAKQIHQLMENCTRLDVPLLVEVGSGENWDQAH

T1 sequence (Q51334 with tags, fused parts or gaps DEL493-1029): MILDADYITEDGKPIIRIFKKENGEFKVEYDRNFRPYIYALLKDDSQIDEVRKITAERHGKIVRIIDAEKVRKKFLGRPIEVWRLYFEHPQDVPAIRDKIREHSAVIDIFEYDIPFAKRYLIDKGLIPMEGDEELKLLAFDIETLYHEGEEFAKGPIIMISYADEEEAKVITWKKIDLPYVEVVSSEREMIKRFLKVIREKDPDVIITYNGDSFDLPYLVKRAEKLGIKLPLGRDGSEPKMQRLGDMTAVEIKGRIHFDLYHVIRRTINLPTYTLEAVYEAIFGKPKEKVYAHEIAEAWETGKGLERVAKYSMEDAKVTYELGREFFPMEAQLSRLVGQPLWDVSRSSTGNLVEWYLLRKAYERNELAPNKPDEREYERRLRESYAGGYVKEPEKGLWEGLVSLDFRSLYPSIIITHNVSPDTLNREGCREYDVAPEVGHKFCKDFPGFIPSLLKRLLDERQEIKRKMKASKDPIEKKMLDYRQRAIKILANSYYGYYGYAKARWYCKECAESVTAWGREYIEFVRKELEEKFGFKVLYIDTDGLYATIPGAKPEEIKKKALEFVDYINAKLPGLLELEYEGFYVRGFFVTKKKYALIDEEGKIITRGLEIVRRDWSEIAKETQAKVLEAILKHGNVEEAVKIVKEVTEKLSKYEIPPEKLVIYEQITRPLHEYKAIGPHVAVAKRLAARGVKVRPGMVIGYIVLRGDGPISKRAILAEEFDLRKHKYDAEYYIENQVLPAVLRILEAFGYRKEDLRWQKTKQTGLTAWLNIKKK

NCCCCCC(=O)NCC#Cc1cc([N+](=O)[O-])n([C@H]2C[C@H](O)[C@@H](COP(=O)(O)OP(=O)(O)OP(=O)(O)O)O2)c1 [NH2-hx-dPnTP, 1-(2-deoxy-β-D-ribofuranosyl)-4-[3-(6-amino-hexanamide)-1-propynyl]-2-nitropyrrole 5′-triphosphate]
amplification of the DNA fragment containing Ds (DeepVent DNA polymerase [1]): about 10^8 times
conservation of the unnatural base Ds in DNA (sequencing analysis) (DeepVent DNA polymerase [1]): almost completely conserved
conservation of both two sites of the unnatural base Ds in DNA (sequencing pattern analysis) (DeepVent DNA polymerase [2]): almost completely conserved
incorporation efficiency into Ds relative to that of the Pn substrate [3]: about twice
incorporation efficiency into natural bases in the template strand [3]: lower than the incorporation efficiency into Ds
